≈ marks a conversion by molar mass, not a printed value. Where “and” joins values, the source holds several entries; their conditions need not be identical. Equal values may be shown once. Read-outs that look alike come from different tables or passages of the source.
Assays:
[1] = in vitro; conditions: dog
[2] = system: S. pneumoniae DSM20566; assay: Planktonic growth inhibition, microtiter broth microdilution assay; type: cell-based, Streptococcus pneumoniae; conditions: Streptococcus pneumoniae, read-out: IC50 Planktonic growth
[3] = system: S. pneumoniae DSM20566; assay: Biofilm formation inhibition assay (crystal violet); type: cell-based, Streptococcus pneumoniae; conditions: Streptococcus pneumoniae, read-out: IC50 Biofilm formation
[4] = system: neuraminidase of influenza A virus (IAV NA); assay: Human erythrocyte-based (hemagglutination-based) viral neuraminidase inhibition assay; type: biochemical, influenza A virus A/Jena/8178/09; conditions: human erythrocytes, 37 °C for 24 h, maximum 100 µM for test compounds
[5] = target: neuraminidase NanA of S. pneumoniae strain DSM20566 (Streptococcus pneumoniae, UniProt P62575); assay: Lectin-based hemagglutination NA inhibition assay with pneumococcal neuraminidase; type: biochemical; conditions: ethanol-precipitated proteins of S. pneumoniae DSM20566, lectin-based hemagglutination assay
Sequence of neuraminidase NanA of S. pneumoniae strain DSM20566 (P62575 54-1035): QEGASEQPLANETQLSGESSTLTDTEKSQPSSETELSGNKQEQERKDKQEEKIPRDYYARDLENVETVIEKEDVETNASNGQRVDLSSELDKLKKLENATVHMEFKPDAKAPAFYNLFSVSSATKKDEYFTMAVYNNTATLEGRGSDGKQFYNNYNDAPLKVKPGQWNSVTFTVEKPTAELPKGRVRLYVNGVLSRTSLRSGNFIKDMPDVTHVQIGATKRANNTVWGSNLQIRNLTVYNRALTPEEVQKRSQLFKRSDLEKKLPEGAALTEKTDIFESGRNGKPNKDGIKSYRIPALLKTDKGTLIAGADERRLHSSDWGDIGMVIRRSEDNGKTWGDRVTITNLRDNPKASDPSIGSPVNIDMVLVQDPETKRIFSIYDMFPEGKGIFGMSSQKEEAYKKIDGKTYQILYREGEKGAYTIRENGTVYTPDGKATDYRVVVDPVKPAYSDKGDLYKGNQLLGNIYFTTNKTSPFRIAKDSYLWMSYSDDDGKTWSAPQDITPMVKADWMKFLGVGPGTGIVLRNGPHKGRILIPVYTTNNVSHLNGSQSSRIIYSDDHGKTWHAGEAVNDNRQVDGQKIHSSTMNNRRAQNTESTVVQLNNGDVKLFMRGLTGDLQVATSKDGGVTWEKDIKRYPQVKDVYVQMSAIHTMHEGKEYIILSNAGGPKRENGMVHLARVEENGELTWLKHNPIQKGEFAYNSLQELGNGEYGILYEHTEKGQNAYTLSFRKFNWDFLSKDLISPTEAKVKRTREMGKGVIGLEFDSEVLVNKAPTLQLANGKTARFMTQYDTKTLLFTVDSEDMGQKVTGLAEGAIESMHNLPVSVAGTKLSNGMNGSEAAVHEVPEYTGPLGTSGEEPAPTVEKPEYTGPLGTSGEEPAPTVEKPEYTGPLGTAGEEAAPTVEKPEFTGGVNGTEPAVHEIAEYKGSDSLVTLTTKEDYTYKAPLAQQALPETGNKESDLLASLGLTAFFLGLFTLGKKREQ

[6] = system: influenza A virus A/Jena/8178/09 (subtype A(H1N1)pdm09); assay: Influenza A virus-induced CPE inhibition assay in MDCK cells (A/Jena/8178/09); type: cell-based; conditions: A(H1N1)pdm09, 48 h, maximum 100 µM, n.a. = not active, read-out: IC50 (IAV) Jena/8178
[7] = system: MDCK cells; conditions: read-out: CC50 (MDCK), 72 h incubation, maximum 100 µM
[8] = system: influenza A virus A/HK/1/68 (subtype H3N2); assay: Influenza A virus-induced CPE inhibition assay in MDCK cells (A/HK/1/68); type: cell-based; conditions: H3N2, 48 h, maximum 100 µM, n.a. = not active, read-out: IC50 (IAV) HK/1/68
[9] = S. pneumoniae DSM20566, 24 h, crystal violet, maximum 50 μM

Row | Compound | MIC IAV NA (minimum neuraminidase inhibitory concentration) [4] | melting point [°C] | MIC S.p. NanA (minimum neuraminidase inhibitory concentration) [5] | IC50 ([6]; Influenza A virus) [µM] | CC50 at 72 h [1] [µM] | also measured
1 | CCOC(=O)c1c(C)n(Cc2ccccc2)c2c1cc(O)c1c2c(-c2ccccc2)nn1-c1ccccc1 [Compound 6c, 1-Benzyl-5-hydroxy-3-ethoxycarbonyl-2-methyl-6,8-diphenyl-pyrrolo[2,3-e]indazole] | 77.20 µM (≈ 38.7 µg/mL) | 256 to 258 | 24.40 µM (≈ 12.2 µg/mL) | 71.1 | – | CC50 [1]: > 100 µM; IC50 ([2]; DSM20566, 18 h): 8.9 µM; IC50 ([3]; DSM20566, 24 h): 0.93 µM
2 | 5-hydroxy-3-ethoxycarbonyl-2-methyl-6,8-diphenyl-pyrrolo[2,3-e]indazole [Compound 6a] | 70.00 µM | – | 31.60 µM | – | – | CC50 [7]: > 100 µM
3 | CCOC(=O)c1c(C)n(C)c2c1cc(OC(C)=O)c1c2c(-c2ccccc2)nn1-c1ccccc1 [Compound 7a] | 100.00 µM (≈ 46.8 µg/mL) | 214 to 216 | 31.60 µM (≈ 14.8 µg/mL) | 83.7 | > 100 | –
4 | CCOC(=O)c1c(C)n(C)c2c1cc(O)c1c2c(-c2ccccc2)nn1-c1ccccc1 [Compound 6b, 5-Hydroxy-3-ethoxycarbonyl-1,2-dimethyl-6,8-diphenyl-pyrrolo[2,3-e]indazole] | 31.60 µM (≈ 13.4 µg/mL) | 270 to 272 | 31.60 µM (≈ 13.4 µg/mL) | 31.6 | > 100 | –
5 | CCOC(=O)c1c(CN2CCCCC2)n(C)c2c1cc(O)c1c2c(-c2ccccc2)nn1-c1ccccc1 [Compound 10a] | 54.40 µM (≈ 27.7 µg/mL) | 285 | 31.60 µM (≈ 16.1 µg/mL) | 86.7 | > 100 | IC50 ([2]; S. pneumoniae DSM20566, 18 h, OD 620 nm, maximum 50 μM): 6.88 µM; IC50 [3, 9]: 3.31 µM
6 | CC(=O)N[C@H]1[C@H]([C@H](O)[C@H](O)CO)OC(C(=O)O)=C[C@@H]1N=C(N)N [Zanamivir, zanamivir, reference compound] | 3.16 µM (≈ 1.05 µg/mL) | – | – | 0.11 | – | –
7 | CCOC(=O)c1c(C)n(-c2ccc(OC)cc2)c2c1cc(O)c1c2c(-c2ccccc2)nn1-c1ccccc1 [Compound 6d, 5-Hydroxy-3-ethoxycarbonyl-1-(4-methoxyphenyl)-2-methyl-6,8-diphenyl-pyrrolo[2,3-e]indazole] | 54.40 µM (≈ 28.2 µg/mL) | 277 to 279 | 17.20 µM (≈ 8.9 µg/mL) | 38.6 | > 100 | –
8 | CCOC(=O)c1c(C)n(Cc2ccccc2)c2c1cc(OC(C)=O)c1c2c(-c2ccccc2)nn1-c1ccccc1 [Compound 7b] | 100.00 µM (≈ 54.4 µg/mL) | – | 31.60 µM (≈ 17.2 µg/mL) | 38.7 | – | CC50 [1]: > 100 µM
9 | CCOC(=O)c1c(C)n(CC)c2c1cc(OCC)c1c2c(-c2ccc([N+](=O)[O-])cc2)nn1-c1ccccc1 [Compound 11b] | 77.20 µM (≈ 39.6 µg/mL) | 175 to 177 | 54.40 µM (≈ 27.9 µg/mL) | 25.5 | – | CC50 [1]: > 100 µM
10 | CCOC(=O)c1c(CN2CCOCC2)n(Cc2ccccc2)c2c1cc(O)c1c2c(-c2ccccc2)nn1-c1ccccc1 [Compound 10b] | 54.40 µM (≈ 31.9 µg/mL) | 145 to 146 | 10.0 µM and 10.00 µM | 33.2 | – | CC50 [1]: > 100 µM; IC50 ([2]; DSM20566, 18 h): 7.57 µM
11 | CCOC(=O)c1c(C)n(C)c2c1cc(OC)c1c2c(-c2ccc([N+](=O)[O-])cc2)nn1-c1ccccc1 [Compound 11a] | 24.40 µM (≈ 11.8 µg/mL) | – | 31.60 µM (≈ 15.3 µg/mL) | 21.5 | > 100 | –
12 | CCOC(=O)c1c(C)[nH]c2c1cc(OC(C)=O)c1c2c(-c2ccc([N+](=O)[O-])cc2)nn1-c1ccccc1 [Compound 11e] | 17.20 µM (≈ 8.57 µg/mL) | – | 10.0 µM and 10.00 µM | 16.7 | > 100 | –
13 | CCOC(=O)c1c(C)[nH]c2c1cc(O)c1c2c(-c2ccc(-n3cccc3)cc2)nn1-c1ccccc1 [Compound 14] | 24.40 µM (≈ 11.6 µg/mL) | – | 10.0 µM and 10.00 µM | 11.4 | > 100 | IC50 [3, 9]: 28 µM
14 | CCOC(=O)c1c(CN2CCCCC2)n(C)c2c1cc(OC(C)=O)c1c2c(-c2ccccc2)nn1-c1ccccc1 [Compound 9a] | does not inhibit | 203 to 205 | 54.40 µM (≈ 30 µg/mL) | – | > 100 | –
15 | CCOC(=O)c1c(C)n(C)c2c1cc(O)c1c2c(-c2ccc([N+](=O)[O-])cc2)nn1-c1ccccc1 [Compound 6f, 5-Hydroxy-3-ethoxycarbonyl-1,2-dimethyl-8-(4-nitrophenyl)-6-phenyl-pyrrolo[2,3-e]indazole] | 77.20 µM (≈ 36.3 µg/mL) | 258 to 261 | 31.60 µM (≈ 14.9 µg/mL) | – | > 100 | IC50 ([8]; Influenza A virus): 42.5 µM
16 | CCOC(=O)c1c(CN(CC)CC)n(C)c2c1cc(OC(C)=O)c1c2c(-c2ccccc2)nn1-c1ccccc1 [Compound 9b] | 77.20 µM (≈ 41.6 µg/mL) | – | 24.40 µM (≈ 13.1 µg/mL) | 53.2 | > 100 | –
17 | CCOC(=O)c1c(C)n(Cc2ccccc2)c2c1cc(O)c1c2c(-c2ccc([N+](=O)[O-])cc2)nn1-c1ccccc1 [Compound 6g, 1-Benzyl-5-hydroxy-3-ethoxycarbonyl-2-methyl-8-(4-nitrophenyl)-6-phenyl-pyrrolo[2,3-e]indazole] | – | 226 to 228 | – | – | – | CC50 [1]: > 100 µM
18 | CCOC(=O)c1c(C)[nH]c2c1cc(O)c1c2c(-c2ccc(CC)cc2)nn1-c1ccccc1 [Compound 6j] | – | – | – | – | > 100 | IC50 ([8]; Influenza A virus): 52.2 µM
19 | 5-Hydroxy-3-ethoxycarbonyl-2-methyl-8-(4-nitrophenyl)-6-phenyl-pyrrolo[2,3-e]indazole [Compound 6e] | 54.40 µM | – | 14.32 µM | – | – | CC50 [7]: > 100 µM; IC50 [6]: 19.5 µM; IC50 [8]: 16.4 µM
20 | CCOC(=O)c1c(C)[nH]c2c1cc(O)c1c2c(-c2ccc(N)cc2)nn1-c1ccccc1 [Compound 12] | 21.40 µM (≈ 9.13 µg/mL) | – | 10.0 µM and 10.00 µM | 15.7 | > 100 | IC50 ([8]; Influenza A virus): 8.54 µM
21 | CCOC(=O)c1c(C)[nH]c2c1cc(O)c1c2c(-c2cc(Cl)cc(Cl)c2)nn1-c1ccccc1 [Compound 6k] | – | – | – | – | > 100 | IC50 ([8]; Influenza A virus): 30.2 µM
22 | CCOC(=O)c1c(C)[nH]c2c1cc(OCC)c1c2c(-c2ccc([N+](=O)[O-])cc2)nn1-c1ccccc1 [Compound 11c] | 47.20 µM (≈ 22.9 µg/mL) | – | 54.40 µM (≈ 26.4 µg/mL) | 30.3 | > 100 | –
23 | CCCCCOc1cc2c(C(=O)OCC)c(C)[nH]c2c2c(-c3ccc([N+](=O)[O-])cc3)nn(-c3ccccc3)c12 [Compound 11d] | – | – | – | 26.5 | > 100 | –

— article PMC10282731, “Pyrrolo[2,3-e]indazole as a novel chemotype for both influenza A virus and pneumococcal neuraminidase inhibitors” (RSC Advances, 2023)
